Reference: PMC11364104, “Discovery of SARS-CoV-2 papain-like protease (PL^pro) inhibitors with efficacy in a murine infection model” (Science Advances, 2024)

Key:
in vivo = assay: in vivo; set-up: species or system mouse; settings: for Vd: C57BL6, mouse, iv, 1 mg/kg, read-out: Vdss
Serotonin 3 = target: T1, Serotonin 3 (Homo sapiens, UniProt P46098); assay: CEREP ion channel-binding
T1 construct: purchased Eurofins Cerep

Human Chymotrypsin = assay type: biochemical
CYP2D6 = CYP2D6 (Homo sapiens, UniProt P10635); assay: biochemical
MERS_Plpro = MERS_Plpro (Middle East respiratory syndrome-related coronavirus, UniProt K9N7C7); assay: biochemical; set-up: species or system MERS-CoV
CYP2C9 = CYP2C9 (Homo sapiens, UniProt P11712); assay: biochemical
GABAa1 Receptor = target: T2, GABAa1 Receptor (Homo sapiens, UniProt P14867); assay: CEREP ion channel-binding
T2 construct: purchased Eurofins Cerep

Dog pharmacokinetics = assay type: in vivo, Beagle dog; settings: for Vd: read-out: Vdss
Procedure: from Vital River (Beijing, China) and were typically 7-9 weeks of age at the time of dosing.
During the pharmacokinetic studies all animals were housed individually. Access to food and water was provided ad libitum (i.e., subjects were dosed in the fed state). In the instances where oral (po) dose was administered in the fed state, with ad libitum access to food and water. Compounds were administered intravenously (iv) via the tail vein (n = 2) dosed as a solution (1 mg/kg, 3 ml/kg) or via oral gavage as a solution (10 mg/kg, 10 ml/kg). Dosing solutions were prepared immediately before dosing. The composition of each dosing vehicle […]
Serial blood samples were collected via the jugular vein cannula at predetermined timepoints after dosing. Animals were monitored for pain or distress throughout the study, with at least daily monitoring during normal husbandry prior to study start. At the completion of the study, animals were euthanized by overdose of inhaled carbon dioxide. Blood samples were collected into tubes containing K2EDTA and stored on ice until centrifugation to obtain plasma, which was stored frozen at - 20 °C or lower.
Dog pharmacokinetic studies were done at Pfizer (Groton, CT). All procedures performed on beagle dogs were in accordance with regulations and established guidelines and were reviewed and approved by an Institutional Animal Care and Use Committee through an ethical review process. Male Beagle dogs were purchased from Marshall Bioresources (North Rose, NY); subjects 3 years of age were used in pharmacokinetics studies. For each study (n=2), compounds were dosed iv by cephalic vein as a solution (0.5 mg/kg, 1 mL/kg) or via oral gavage as a suspension (3 mg/kg, 5 mL/kg). In the instances where oral (po) dose was administered in the fed state, dogs were fed a couple hours before dosing. In the instances where the IV dose was administered in the fasted state, dogs were fasted over night and fed 4 hours post dose. Subjects were monitored for pain or distress throughout the study followed by at least daily monitoring while off study. The iv dosing vehicle was optimized such that the compounds were in solution and stable for at least 24 h. Serial blood samples were collected via the jugular vein at predefined time points post-dose. Blood samples were collected into K3EDTA treated collection tubes and were stored on wet ice prior to being centrifuged to obtain plasma, which was stored frozen at - 20 °C or lower.
Monkey pharmacokinetic studies were conducted at Pfizer (Groton, CT). All procedures performed on Cynomolgus monkeys were in accordance with regulations and established guidelines and were reviewed and approved by an Institutional Animal Care and Use Committee through an ethical review process. Male Cynomolgus monkeys were purchased from Envigo Global Services (Indianapolis, IN); subjects 5-8 years of age were used in pharmacokinetic studies. For each study (n=2), compounds were dosed iv by the cephalic vein (typically 1 mg/kg, 2 ml/kg). Subjects were monitored for pain or distress throughout the study followed by at least daily monitoring while off study. The iv dosing vehicle was optimized such that the compounds were in solution and stable for at least 24 h.
Serial blood samples were collected via the femoral vein at predefined time points post-dose. Blood samples were collected into K3EDTA treated collection tubes and were stored on wet ice prior to being centrifuged to obtain plasma, which was stored frozen at -20 °C or […]
LC-MS/MS Analysis of Plasma Samples
Plasma samples were processed using protein precipitation with 50:50 acetonitrile: methanol containing terfenadine (5 ng/ml) as an internal standard followed by quantitation against a standard curve (0.1-1000 ng/ml) prepared in blank plasma. Quantitation of analyte in plasma samples was done using LC-MS/MS. Standard and quality control samples, prepared in blank plasma were extracted in the same manner as the in-life samples. Briefly, a Waters […]

Human Caspase 2 = target: T3, Human Caspase 2 (Homo sapiens, UniProt P42575); assay: biochemical
T3 construct: assay run at Reaction Biology Corporation

[1] = Metabolic stability in cryopreserved human hepatocytes
[2] = in vivo, Male C57BL6 mouse, 1.0 mg/kg iv, solution, mean n=2
[3] = in vivo, Male C57BL6 mouse, 10 mg/kg po, solution, mean n=2
[4] = mouse Balb c female, PO 15 mg/kg, suspension
[5] = mouse Balb c female, PO 50 mg/kg, suspension
[6] = mouse Balb c female, PO 150 mg/kg, suspension
[7] = mouse C57BL6 male, IV 1 mg/kg, solution
[8] = mouse C57BL6 male, PO 10 mg/kg, solution
[9] = mouse C57BL6 male, PO 30 mg/kg, solution
[10] = plasma, Male Beagle Dog, 0.5 mg/kg iv, solution, mean n=2
[11] = plasma, Male Beagle Dog, 3.0 mg/kg po, suspension, mean n=2

MERS_Plpro, sequence (K9N7C7 1552-1823 limits assumed): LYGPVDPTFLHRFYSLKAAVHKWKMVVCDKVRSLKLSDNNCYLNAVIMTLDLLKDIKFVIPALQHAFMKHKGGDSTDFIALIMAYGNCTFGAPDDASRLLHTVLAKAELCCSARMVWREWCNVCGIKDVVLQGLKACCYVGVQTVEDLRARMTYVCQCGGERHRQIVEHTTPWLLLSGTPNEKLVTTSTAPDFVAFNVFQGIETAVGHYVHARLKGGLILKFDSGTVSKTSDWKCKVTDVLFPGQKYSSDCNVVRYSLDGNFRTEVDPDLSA
CYP2D6, sequence (P10635 whole entry): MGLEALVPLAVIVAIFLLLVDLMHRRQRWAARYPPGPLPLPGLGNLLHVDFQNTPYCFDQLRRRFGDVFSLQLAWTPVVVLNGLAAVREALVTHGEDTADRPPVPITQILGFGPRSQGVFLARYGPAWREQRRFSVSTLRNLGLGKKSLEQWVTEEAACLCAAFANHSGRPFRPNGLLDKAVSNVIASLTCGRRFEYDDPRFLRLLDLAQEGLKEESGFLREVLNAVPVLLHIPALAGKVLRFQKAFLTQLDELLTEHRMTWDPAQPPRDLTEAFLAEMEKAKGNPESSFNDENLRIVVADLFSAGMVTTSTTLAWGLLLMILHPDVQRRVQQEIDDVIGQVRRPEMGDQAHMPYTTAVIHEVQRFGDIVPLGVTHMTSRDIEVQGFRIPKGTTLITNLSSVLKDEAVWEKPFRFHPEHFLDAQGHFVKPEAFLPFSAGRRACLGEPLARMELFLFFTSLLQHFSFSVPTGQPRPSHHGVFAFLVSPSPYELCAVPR
T1 sequence (P46098 24-478): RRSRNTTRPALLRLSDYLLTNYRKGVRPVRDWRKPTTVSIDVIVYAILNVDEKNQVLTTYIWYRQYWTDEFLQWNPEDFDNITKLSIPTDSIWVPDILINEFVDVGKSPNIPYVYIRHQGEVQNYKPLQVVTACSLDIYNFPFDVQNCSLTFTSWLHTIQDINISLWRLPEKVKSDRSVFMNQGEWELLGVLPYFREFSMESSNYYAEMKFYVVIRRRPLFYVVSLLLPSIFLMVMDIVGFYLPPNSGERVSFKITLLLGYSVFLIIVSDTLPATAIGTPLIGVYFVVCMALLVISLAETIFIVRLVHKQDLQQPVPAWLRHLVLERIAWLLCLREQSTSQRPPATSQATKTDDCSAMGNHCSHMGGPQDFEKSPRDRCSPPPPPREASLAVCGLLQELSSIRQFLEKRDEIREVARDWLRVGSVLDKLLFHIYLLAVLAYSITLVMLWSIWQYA
T2 sequence (P14867 28-456): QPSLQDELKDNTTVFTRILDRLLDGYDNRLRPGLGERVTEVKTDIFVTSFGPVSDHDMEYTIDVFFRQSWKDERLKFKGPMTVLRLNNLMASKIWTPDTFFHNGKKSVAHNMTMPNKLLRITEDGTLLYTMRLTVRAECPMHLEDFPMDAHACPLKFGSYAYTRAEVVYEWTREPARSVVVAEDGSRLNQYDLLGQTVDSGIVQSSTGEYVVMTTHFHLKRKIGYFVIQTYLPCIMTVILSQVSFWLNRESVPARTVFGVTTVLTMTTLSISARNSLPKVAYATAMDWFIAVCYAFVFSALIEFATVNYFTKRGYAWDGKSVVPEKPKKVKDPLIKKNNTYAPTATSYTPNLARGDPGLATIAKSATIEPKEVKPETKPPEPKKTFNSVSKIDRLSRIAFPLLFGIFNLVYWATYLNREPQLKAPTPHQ
T2 sequence (P47870 26-512 partner): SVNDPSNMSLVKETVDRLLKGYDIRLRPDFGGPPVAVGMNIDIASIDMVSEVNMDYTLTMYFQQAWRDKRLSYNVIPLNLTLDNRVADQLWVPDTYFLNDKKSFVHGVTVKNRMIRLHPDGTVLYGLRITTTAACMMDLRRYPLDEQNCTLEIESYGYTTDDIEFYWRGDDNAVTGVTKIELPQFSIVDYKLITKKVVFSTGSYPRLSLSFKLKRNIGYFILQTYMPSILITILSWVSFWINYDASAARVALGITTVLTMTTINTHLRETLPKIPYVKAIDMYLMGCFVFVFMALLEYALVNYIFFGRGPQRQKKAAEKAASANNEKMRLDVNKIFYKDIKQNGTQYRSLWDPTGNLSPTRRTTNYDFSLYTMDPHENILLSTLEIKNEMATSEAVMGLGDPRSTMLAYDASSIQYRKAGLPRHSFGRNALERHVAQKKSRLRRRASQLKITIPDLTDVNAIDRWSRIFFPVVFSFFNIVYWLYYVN
T2 sequence (P18507 40-475 partner): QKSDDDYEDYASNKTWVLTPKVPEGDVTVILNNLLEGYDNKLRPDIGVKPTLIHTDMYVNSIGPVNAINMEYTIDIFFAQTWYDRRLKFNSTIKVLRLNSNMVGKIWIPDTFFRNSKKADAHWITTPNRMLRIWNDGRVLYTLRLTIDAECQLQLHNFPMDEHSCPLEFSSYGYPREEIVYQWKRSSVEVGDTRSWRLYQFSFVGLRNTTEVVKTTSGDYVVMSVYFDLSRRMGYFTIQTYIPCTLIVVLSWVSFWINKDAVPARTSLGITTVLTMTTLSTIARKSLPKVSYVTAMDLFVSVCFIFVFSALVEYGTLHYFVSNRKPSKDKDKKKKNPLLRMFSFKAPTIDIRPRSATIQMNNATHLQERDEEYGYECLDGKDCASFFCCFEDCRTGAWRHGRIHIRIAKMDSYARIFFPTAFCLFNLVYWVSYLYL
CYP2C9, sequence (P11712 whole entry): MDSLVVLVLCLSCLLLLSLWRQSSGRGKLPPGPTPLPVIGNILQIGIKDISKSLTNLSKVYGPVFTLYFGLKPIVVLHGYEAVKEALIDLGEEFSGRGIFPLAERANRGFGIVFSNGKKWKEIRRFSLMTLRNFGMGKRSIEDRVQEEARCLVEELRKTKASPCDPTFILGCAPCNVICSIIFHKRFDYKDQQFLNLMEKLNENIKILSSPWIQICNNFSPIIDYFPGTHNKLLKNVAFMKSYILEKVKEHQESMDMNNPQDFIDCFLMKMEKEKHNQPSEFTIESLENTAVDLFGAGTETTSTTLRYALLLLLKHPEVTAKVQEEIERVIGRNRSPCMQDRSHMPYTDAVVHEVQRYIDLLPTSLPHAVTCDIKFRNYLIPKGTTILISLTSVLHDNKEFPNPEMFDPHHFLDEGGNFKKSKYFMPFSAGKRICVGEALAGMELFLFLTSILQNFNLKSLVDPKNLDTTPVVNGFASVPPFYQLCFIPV
T3 sequence (P42575 170-325 limits assumed): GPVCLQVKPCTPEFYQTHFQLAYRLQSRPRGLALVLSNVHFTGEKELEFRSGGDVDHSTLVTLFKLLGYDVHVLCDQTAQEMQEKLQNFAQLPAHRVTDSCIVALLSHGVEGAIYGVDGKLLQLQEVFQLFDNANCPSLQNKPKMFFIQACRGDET
T3 sequence (P42575 348-452 limits assumed): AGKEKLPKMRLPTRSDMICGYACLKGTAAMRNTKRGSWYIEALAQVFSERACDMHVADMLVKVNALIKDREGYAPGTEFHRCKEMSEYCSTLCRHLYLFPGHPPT

With `Cc1ccc(N2CCN(C)CC2)cc1C(=O)NC1(c2cc(-c3cnn(C)c3)nc3ccccc23)CC1` [Compound 4] the “Oral F” value (in vivo; Male C57BL6 mouse, 10 mg/kg po, solution, mean n=2) was 53.10%, the AUC(0-inf) (in vivo; [2]) was 708 ng·h/mL and the half-life (in vivo; [2]) was 197 min. It also gave a clearance (in vivo; in vivo, Male C57BL6 mouse, 1.0 mg/kg iv, solution, mean n=2, read-out: CLp) of 23.7 mL/min/kg, an AUC(0-inf) (in vivo; [3]) of 3760 ng·h/mL and a Cmax (in vivo; [3]) of 862 ng/mL. For the same compound, the half-life (in vivo; [3]) was 131 min, the Tmax (in vivo; in vivo, Male C57BL6 mouse, 10 mg/kg po, solution, mean n=2, read-out: Tmax) was 2 h and the Cmax (in vivo; in vivo, mouse Balb c female, PO 15 mg/kg, suspension) was 1140 ng/mL. The Cmax (in vivo; in vivo, mouse Balb c female, PO 50 mg/kg, suspension) was 5410 ng/mL, the Cmax (in vivo; in vivo, mouse Balb c female, PO 150 mg/kg, suspension) was 12800 ng/mL and the Cmax (in vivo; in vivo, mouse C57BL6 male, PO 30 mg/kg, solution) was 1880 ng/mL. It also gave a bioavailability (in vivo; male, C57BL6, in vivo, po, 10 mg/kg, mouse (m), read-out: Oral F (%)) of 53.2%, a Vd (in vivo; male, in vivo, Male C57BL6 mouse, 1.0 mg/kg iv, solution, mean n=2) of 2.13 L/kg and a Vd (in vivo; male, in vivo, mouse (m), intravenous) of 2.12 L/kg. For the same compound, the Vd (in vivo; male, in vivo, mouse C57BL6 male, IV 1 mg/kg, solution) was 2.13 L/kg, the “% F Method 3 (Dose * AUC Extrap)” value (in vivo; [4]) was 74.8% and the “AUC(0,inf)” value (in vivo; [4]) was 7940 ng·h/mL. For the same compound, the “AUC(0-Tlast)” value (in vivo; [4]) was 7940 ng·h/mL, the T1/2 (in vivo; [4]) was 1.95 h and the Tmax (in vivo; [4]) was 1.25 h. The “% F Method 3 (Dose * AUC Extrap)” value (in vivo; [5]) was 84.0%, the “AUC(0,inf)” value (in vivo; [5]) was 29800 ng·h/mL and the “AUC(0-Tlast)” value (in vivo; [5]) was 29700 ng·h/mL. For the same compound, the T1/2 (in vivo; [5]) was 2.01 h, the Tmax (in vivo; [5]) was 0.375 h and the “% F Method 3 (Dose * AUC Extrap)” value (in vivo; [6]) was 84.0%. The “AUC(0,inf)” value (in vivo; [6]) was 89200 ng·h/mL, the “AUC(0-Tlast)” value (in vivo; [6]) was 89100 ng·h/mL and the T1/2 (in vivo; [6]) was 2.47 h. For the same compound, the Tmax (in vivo; [6]) was 0.25 h, the “% of dose in feces” value (in vivo; [7]) was 26.0% and the “AUC(0,inf)” value (in vivo; [7]) was 708 ng·h/mL. The “AUC(0-Tlast)” value (in vivo; [7]) was 706 ng·h/mL, the T1/2 (in vivo; [7]) was 3.29 h and the “% F Method 3 (Dose * AUC Extrap)” value (in vivo; [8]) was 53.1%. For the same compound, the “% of dose in feces” value (in vivo; [8]) was 12.6%, the “AUC(0,inf)” value (in vivo; [8]) was 3760 ng·h/mL and the “AUC(0-Tlast)” value (in vivo; [8]) was 3760 ng·h/mL. The T1/2 (in vivo; [8]) was 2.19 h, the Tmax (in vivo; [8]) was 2 h and the “% F Method 3 (Dose * AUC Extrap)” value (in vivo; [9]) was 67.4%. The “% of dose in feces” value (in vivo; [9]) was 10.8%, the “AUC(0,inf)” value (in vivo; [9]) was 14300 ng·h/mL and the “AUC(0-Tlast)” value (in vivo; [9]) was 14300 ng·h/mL. For the same compound, the T1/2 (in vivo; [9]) was 2.17 h, the Tmax (in vivo; [9]) was 2 h and the tolerability (in vivo; mouse, oral, highest dose studied (500 mg/kg)) was “tolerated”. It also gave an inhibition at 30 µM (Serotonin 3) of -10%, an IC50 (Human Chymotrypsin) greater than 100 µM and an IC50 (CYP2D6) greater than 30 µM. The Ki (MERS_Plpro) was greater than 10 µM, the “activity on MERS PL^pro” value (MERS_Plpro) was “nearly inactive” and the IC50 (CYP2C9) was greater than 30 µM. The inhibition at 30 µM (GABAa1 Receptor) was 10%, the “Oral F” value (Dog pharmacokinetics; Male Beagle Dog, 3.0 mg/kg po, suspension, mean n=2) was 41.0% and the Vd (Dog pharmacokinetics; male, Beagle, plasma, 0.5 mg/kg, dog (d), intravenous) was 1.59 L/kg. It also gave a bioavailability (Dog pharmacokinetics; male, Beagle, plasma, po, 3 mg/kg, dog (d), read-out: Oral F (%)) of 41%, an AUC(0-inf) (Dog pharmacokinetics; [10]) of 640 ng·h/mL and a half-life (Dog pharmacokinetics; [10]) of 124 min. For the same compound, the clearance (Dog pharmacokinetics; plasma, Male Beagle Dog, 0.5 mg/kg iv, solution, mean n=2, read-out: CLp) was 13.4 mL/min/kg, the Vd (Dog pharmacokinetics; [10]) was 1.59 L/kg and the AUC(0-inf) (Dog pharmacokinetics; [11]) was 1580 ng·h/mL. It also gave a Cmax (Dog pharmacokinetics; [11]) of 354 ng/mL, a Tmax (Dog pharmacokinetics; [11]) of 1 h and a half-life (Dog pharmacokinetics; [11]) of 151 min. For the same compound, the IC50 (Human Caspase 2) was greater than 100 µM and the hepatocyte CLint [1] was 8.84 µL/min/1e6 cells.
